Source: ChEMBL document CHEMBL5727757, “Methods, compositions, and uses of novel Fyn kinase inhibitors” (2020)

Target: Tyrosine-protein kinase Fyn (Homo sapiens, UniProt P06241)
Test: ADP-Glo Kinase Assay: The assay procedure determines the IC50 of each potential FYN kinase inhibitor by measuring the enzyme catalyzed ATP-dependent phosphorylation of the FYN substrate peptide. The ADP-Glo™ Kinase Assay is specifically designed to quantify kinase activity by measuring the ADP produced in the reaction The reaction buffer comprises 40 mM Tris.HCl (pH 7.5), 20 mM MgCl2, 0.1 mg/ml BSA and 5 microM DTT. Individual compounds within the chemical library were dissolved in DMSO at known concentrations. Briefly, 2.5 microliters of reaction buffer containing 3 picograms of FYN kinase and serial dilutions of each potential FYN kinase inhibitor (9 3-fold dilutions of a 10 micromolar top sample) are placed into each well of a 384 well microtiter plate and incubated at room temperature for 30 minutes. An additional 2.5 microliters of reaction buffer containing 100 picograms of the FYN substrate and 12.5 picomoles of ATP are then added to each well and the reaction carried out for 90 minutes at room temperature.

Chain of Tyrosine-protein kinase Fyn (P06241 whole entry): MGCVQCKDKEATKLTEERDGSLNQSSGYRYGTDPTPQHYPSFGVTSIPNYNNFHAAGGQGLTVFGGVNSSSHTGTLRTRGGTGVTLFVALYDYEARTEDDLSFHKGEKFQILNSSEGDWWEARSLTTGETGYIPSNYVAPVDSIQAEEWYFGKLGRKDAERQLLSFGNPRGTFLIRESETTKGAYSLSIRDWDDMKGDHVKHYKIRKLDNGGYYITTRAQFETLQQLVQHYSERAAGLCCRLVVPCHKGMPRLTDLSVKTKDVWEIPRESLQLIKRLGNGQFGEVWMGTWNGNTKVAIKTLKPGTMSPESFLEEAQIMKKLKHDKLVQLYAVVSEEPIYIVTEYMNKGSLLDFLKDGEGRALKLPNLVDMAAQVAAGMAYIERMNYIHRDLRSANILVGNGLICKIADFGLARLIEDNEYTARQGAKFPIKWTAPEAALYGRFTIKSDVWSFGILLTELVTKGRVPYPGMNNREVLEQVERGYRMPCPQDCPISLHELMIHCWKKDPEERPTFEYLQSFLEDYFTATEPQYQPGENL

| SMILES | IC50 |
| --- | --- |
| COc1cc(-c2nn([C@H]3CC[C@H](N4CCN(C)CC4)CC3)c3ncnc(N)c23)ccc1NC(=O)c1cc2ccccc2n1C | 330 nM |
| COc1ccc2c(c1)-c1nc(Nc3cc(C)c(OCCN(C)C)c(C)c3)ncc1CC2 | 8 nM |
| COc1cc2ncnc3c2cc1OCCCCCN(C(=O)OCc1ccccc1)Cc1ccc2c(c1N3)OCO2 | 6.69 nM |
| COc1ccc2c(c1)-c1nc(Nc3ccc(CCCN4CCCC4)c(OC)c3)ncc1CC2(C)C | 8 nM |
